Columns and labels:
Plasmodium falciparum [1] = assay: ST_JUDE: Plasmodium falciparum 3D7 EC50 (uM) as measured by SYBR green dye; format: functional, organism-based
Plasmodium falciparum [2] = assay: ST_JUDE: Plasmodium falciparum K1 EC50 (uM) as measured by SYBR green dye; format: functional, organism-based

Row | EC50 (Plasmodium falciparum [1]) [µM] | EC50 (Plasmodium falciparum [2]) [µM] | Compound
1 | 0.62 | 0.744 | COC(=O)C1=CNC=C(C(=O)OC)C1c1ccc(Cl)c([N+](=O)[O-])c1
2 | 2.59 | 3.23 | O=C(Nc1ccc(-c2nc3cc(NC(=O)c4ccc(Br)o4)ccc3[nH]2)cc1)c1ccc(Br)o1
3 | 3.47 | 3.34 | Cc1cccc(NC(c2cccc(Cl)c2)c2ccc3cccnc3c2O)n1 (stereo not drawn)
4 | > 15 | > 15 | CC(C)(C)C(=O)Cn1ccc(=N)c2ccccc21
5 | > 15 | > 15 | CCOC(=O)c1ccc(N2Cc3ccccc3C2)cc1O
6 | > 15 | > 15 | COc1cc(/C=C(\C#N)c2nc(-c3ccc(Cl)cc3)cs2)cc([N+](=O)[O-])c1O
7 | > 15 | > 15 | CCOc1cccc(-c2cc(C(=O)Nc3cc(C)ccn3)c3ccccc3n2)c1
8 | 0.798 | 1.04 | Cc1ccc(-n2nc(C)c3c(C)c(CCC(=O)Nc4ccc5[nH]c(-c6cccnc6)nc5c4)c(C)nc32)cc1C
9 | > 15 | > 15 | CCc1ccc(OC(C)C(=O)Nc2nccs2)cc1 (stereo not drawn)
10 | 3.99 | 4.69 | Cc1cccc(CN2C(=O)/C(=C\c3ccc(C(=O)NC4CCCC4)cc3)Sc3ccccc32)c1
11 | > 15 | > 15 | O=C(Nc1ccc([N+](=O)[O-])cc1)Nc1cc(Cl)cc(Cl)c1
12 | 0.829 | 1.7 | OCCNc1nc(Nc2ccc(Br)cc2)nc2ccccc12
13 | 4.06 | 5.95 | CS(=O)(=O)N(CC(=O)Nc1ccccc1Sc1ccccc1)c1ccc(Cl)c(Cl)c1
14 | 3.51 | 2.65 | COc1ccc2nc(N(Cc3cccnc3)C(=O)C3CCCCC3)sc2c1
15 | > 15 | 6.96 | COc1ccc(C2C(C(=O)Nc3cc(OC)ccc3OC)c3ccccc3C(=O)N2C)cc1 (stereo not drawn)
16 | 2.32 | 3.17 | CC(C)(C)OC(=O)CCN1C(=O)CSC1c1cnccc1-c1ccc(Br)cc1 (stereo not drawn)
17 | 4.17 | 4.78 | CC(C)CC(=O)NC(c1ccc(Cl)cc1)c1c(O)ccc2ccccc12 (stereo not drawn)
18 | > 15 | > 15 | CCOC(=O)c1ccc(Nc2nc3nonc3nc2NCc2ccco2)cc1
19 | 1.31 | 1.61 | CCCSc1nc2sc3c(c2c(=O)n1-c1ccc(C)cc1)CCN(Cc1ccccc1)C3
20 | 7.12 | 5.83 | Cc1cccc2sc(NNC(=O)c3ccc(S(=O)(=O)N(C)C)cc3)nc12
21 | > 15 | > 15 | Cc1onc(-c2ccccc2)c1C(=O)Nc1cccc(Br)c1

Row | EC50 (Plasmodium falciparum [1]) [µM] | EC50 (Plasmodium falciparum [2]) [µM] | Compound
22 | 2.45 | 1.99 | CCc1ccc(C(O)(CCC(C)C)C(CN2CCOCC2)c2ccccc2)cc1 (stereo not drawn)
23 | 4.03 | 0.776 | CCOC(=O)c1ccc(OCC2c3cc(OC)c(OC)cc3CCN2C(=O)Nc2ccccc2)cc1 (stereo not drawn)
24 | > 15 | 5.3 | CCCCC(=O)NC(c1ccc(Cl)cc1Cl)c1ccc2cccnc2c1O (stereo not drawn)
25 | 0.753 | 4.74 | N=C(N/N=C\c1ccc(F)cc1)N/N=C\c1ccc(F)cc1
26 | > 15 | > 15 | COc1ccccc1/C=C/CN1CCC(C(Cc2ccccc2)N(C)C(=O)c2cc(C)nn2C)CC1 (stereo not drawn)
27 | > 15 | > 15 | CCN(CC)C(=O)c1sc(NC(=O)CCc2ccccc2)c(C(=O)OC(C)C)c1C
28 | > 15 | > 15 | Cc1nc2sc(C(c3ccc(Cl)cc3)N3CCC4(CC3)OCCO4)c(O)n2n1 (stereo not drawn)
29 | > 15 | 5.13 | CCCCC(=O)NC(c1ccc(C(C)C)cc1)c1cc([N+](=O)[O-])c2cccnc2c1O (stereo not drawn)
30 | 2.95 | 3.88 | CCOc1ccc(NC(=O)C2c3ccccc3C(=O)N(C3CCCC3)C2c2cccs2)cc1 (stereo not drawn)
31 | > 15 | > 15 | COc1ccc2cc3cc(C(=O)Nc4ccccc4N4CCN(C)CC4)sc3nc2c1
32 | > 15 | > 15 | CCN(CC)c1cc(C)c2cc(NC(=O)c3ccc(Cl)c([N+](=O)[O-])c3)ccc2n1
33 | 2.73 | 4.07 | O=C(NC(NC(=S)Nc1ccc(Cl)cc1)C(Cl)(Cl)Cl)c1ccccc1F (stereo not drawn)
34 | 2 | 6.21 | Cc1cc(N2CCN(C)CC2)nc2ccc(NC(=S)NCCN3CCN(c4ccccc4F)CC3)cc12
35 | 1.78 | 3.75 | Cc1cccc(CN2C(=O)/C(=C\c3ccccc3)Sc3ccc(C(=O)NCCN(C)C4CCCCC4)cc32)c1
36 | 0.881 | 1.47 | CCO/C(O)=C1\C(C)=NC2=C(C(=O)CC(c3ccc(Cl)cc3)C2)C1c1ccc(O)c(OCC)c1 (stereo not drawn)
37 | 1.43 | 1.22 | Cc1ccc(Oc2c(C(F)(F)F)oc3c(CN4CCN(C)CC4)c(O)ccc3c2=O)cc1
38 | > 15 | > 15 | CC(C)(C)c1ccc(C(=O)Nc2cccc(NC(=O)c3cccs3)c2)cc1
39 | 6.66 | 5.68 | Cc1ccc(C(C)(C)C)c(OCCCCn2ccnc2)c1
40 | 2.05 | 7.31 | COc1ccc(Nc2cc(C)nc(Nc3ccc(NS(=O)(=O)c4cccc(F)c4)cc3)n2)cc1
41 | > 15 | > 15 | Cc1cc(C)c(S(=O)(=O)N(C)CC(=O)Nc2cccc(C(F)(F)F)c2)c(C)c1
42 | 3.8 | 4.78 | CCC(=O)NC(c1ccc(OC)c(OC)c1)c1ccc2cccnc2c1O (stereo not drawn)

Row | EC50 (Plasmodium falciparum [1]) [µM] | EC50 (Plasmodium falciparum [2]) [µM] | Compound
43 | > 15 | > 15 | COc1cc(/C=C/C(=O)Nc2cccc(Br)c2)cc(OC)c1OC
44 | 2.31 | 2.72 | CCc1ccc(C(Nc2ccccn2)c2ccc3cccnc3c2O)cc1 (stereo not drawn)
45 | > 15 | 1.46 | O=C(CN(Cc1ccc(F)cc1)S(=O)(=O)c1ccc(Cl)cc1)Nc1ccccc1Cl
46 | 1.79 | 0.377 | O=C1C(Nc2ccc(Br)cc2)=C(N2CCOCC2)C(=O)c2ccccc21
47 | > 15 | 5.17 | CCOc1ccc(/C=C2\Oc3c(ccc(O)c3CN(CC)CC)C2=O)cc1
48 | 3.43 | 2.94 | COc1ccc(CCNC(=S)Nc2cc(Cl)ccc2Cl)cc1OC
49 | > 15 | > 15 | O=C(Nc1cccc(OC(F)(F)F)c1)c1ccc(Br)o1
50 | 1.39 | 1.8 | CCOc1ccc(-c2nonc2NC(=O)C(C)C)cc1OCC
51 | 0.618 | 7.51 | COc1ccc(S(=O)(=O)Nc2ccc(Nc3nc(C)cc(Nc4ccc(C)cc4)n3)cc2)cc1
52 | > 15 | > 15 | CCOc1ccc(-c2nc(NC(=O)c3cccc(S(C)(=O)=O)c3)sc2C)cc1
53 | > 15 | > 15 | CCc1c(C)nc(-n2nc(C)cc2NC(=O)c2cccc(OC)c2)nc1O
54 | > 15 | 10.1 | Cc1cccn2c(=O)nc(SCc3cccc(F)c3)nc12
55 | > 15 | > 15 | COC(=O)C1=C(C)N=c2s/c(=C\c3ccccc3OC(C)=O)c(=O)n2C1c1ccccc1Cl (stereo not drawn)
56 | 7.79 | > 15 | CC(C)COc1ccc(COC2C(C3COC(C)(C)O3)OC3OC(C)(C)OC32)cc1 (stereo not drawn)
57 | 6.77 | 8.91 | COc1cc2c(cc1OC)C(COc1cccc(C(F)(F)F)c1)N(C(=O)C(C)(C)C)CC2 (stereo not drawn)
58 | 1.39 | 1.3 | CSc1nnc(-c2cccc([N+](=O)[O-])c2)n1Cc1ccccc1
59 | > 15 | > 15 | CCOCc1cc(CN2CCN(CCC(C)C)C(CCO)C2)ccc1OC (stereo not drawn)
60 | > 15 | > 15 | N#C/C(=C/c1ccc(O)c([N+](=O)[O-])c1)c1nc(-c2ccc(Cl)cc2)cs1
61 | 2.4 | 6.15 | CCN1CCN(c2cc(C)c3cc(NC(=S)NCCN4CCN(c5cccc(Cl)c5)CC4)ccc3n2)CC1
62 | 2.32 | 2.73 | CCOc1c(Br)cc(C2C(C#N)=C(N)Oc3cc4c(cc32)OCO4)cc1OC (stereo not drawn)
63 | > 15 | > 15 | COc1cccc2c(C)nc(N=C(N)N)nc12

Row | EC50 (Plasmodium falciparum [1]) [µM] | EC50 (Plasmodium falciparum [2]) [µM] | Compound
64 | 6.54 | > 15 | COc1ccc(S(=O)(=O)n2nc(-c3ccc(Cl)cc3)cc2N)cc1OC
65 | 2.3 | 2.43 | Cn1c(=N)n(CC(O)c2ccc(Cl)c(Cl)c2)c2ccccc21 (stereo not drawn)
66 | > 15 | 3.84 | O=C(c1cccs1)N(Cc1cccnc1)c1nc2c(Cl)cccc2s1
67 | 1.81 | 1.61 | COc1ccc(-c2onc(C(F)(F)F)c2Oc2cnn(-c3ccccc3)c2)c(O)c1
68 | 0.741 | 1.32 | COc1ccc(C(C)(C)C)cc1S(=O)(=O)Nc1ccc(Nc2nc(C)cc(N(C)C)n2)cc1
69 | 1.61 | 1.04 | COc1ccc(CN2CCCC(N3CCN(c4ccc(F)cc4)CC3)C2)c(O)c1 (stereo not drawn)
70 | > 15 | > 15 | CCCc1cc(O)nc(-n2nc(C)cc2NC(=O)c2cc(C(F)(F)F)cc(C(F)(F)F)c2)n1
71 | 1.88 | 2.3 | CCCC(=O)NC(c1ccc(Cl)cc1)c1ccc2cccnc2c1O (stereo not drawn)
72 | 4.14 | > 15 | CCOC(=O)c1c(CN(C)C)n(-c2ccccc2)c2cc(Br)c(O)cc12
73 | 0.163 | 0.145 | COc1ccc2c(c1)C=C/C(=C\c1sc3ccccc3[n+]1C)N2C
74 | 4.07 | 4.44 | CCC(=O)NC(c1ccc(N(C)C)cc1)c1ccc2cccnc2c1O (stereo not drawn)
75 | 0.487 | 1.61 | COc1ccc(-n2c(N)c(C#N)c3nc4ccccc4nc32)cc1
76 | > 15 | > 15 | CCCCCN1CCN(c2nc3c(c(=O)[nH]c(=O)n3C)n2Cc2ccc(C)cc2)CC1
77 | > 15 | > 15 | O=C1CC(c2ccc(Cl)cc2Cl)C2=C(CC(c3ccc(F)cc3)CC2=O)N1 (stereo not drawn)
78 | 3.64 | > 15 | COc1ccc(OC)c(/C=N/Nc2nc3ccccc3[nH]2)c1
79 | > 15 | > 15 | COc1cc2nnc(/C=C/C(C)=O)c(-c3ccc(C)o3)c2cc1OC
80 | > 15 | > 15 | CCCc1cc(O)nc(-n2nc(C)cc2NC(=O)c2cc(C)cc(C)c2)n1
81 | 2.05 | > 15 | CCOC(=O)N1CCN(C(=O)Nc2cc(C(F)(F)F)cc(C(F)(F)F)c2)CC1
82 | 4.41 | > 15 | CCc1ccc(C(Nc2ccccn2)c2cc(Cl)c3cccnc3c2O)cc1 (stereo not drawn)
83 | 0.19 | 0.138 | Cc1ccc2c(c1)C=C/C(=C\c1cccc[n+]1C)N2C
84 | 2.16 | 1.59 | Cc1cc(C)c2c(c1)c(-c1ccccc1)c(-c1ccccc1)n2CC(O)CN1CCN(CCO)CC1 (stereo not drawn)
